Data from the METLIN SMRT retention time set (Domingo-Almenara et al. 2019).

test: gradient 5% acetonitrile 3 min, to 50% in 2 min, to 85% in 15 min, held 3 min, 100 µL/min; conditions: column: Zorbax Extend-C18 2.1 x 50 mm; eluents: water / acetonitrile, 0.1% formic acid
Method in brief: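 Retention times come from adduct peaks that were picked computationally and then checked by hand. The standards, pure and pooled in mixtures of ~100 molecules, were run on a Zorbax Extend-C18 column (2.1 × 50 mm, 1.8 μm) at 100 μL/min with water and acetonitrile, each with 0.1% formic acid. Detection was by quadrupole time-of-flight mass spectrometry in positive and negative ionization mode, with a dead volume of 40 μL and a dwell volume of 900 μL.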

SMILES	RP-LC retention time
O=C(NCCN1CCOCC1)c1ccc2c(c1)CCCN2S(=O)(=O)c1ccc(Cl)cc1	689 s
Cc1ccc2oc(-c3nnc(C(=O)NCCCN4CCOCC4)o3)c(C)c2c1	668 s
Cn1c(C(=O)N2CCCC(C(=O)N3CCc4ccccc4C3)C2)cc2sccc21 (configuration not stated)	925 s
CCC(c1cccs1)N1C(=O)[C@H]2CN(S(=O)(=O)c3ccccc3F)C[C@H]2C1=O (some centres not stated)	972 s
O=S(=O)(c1ccc(-c2nnc(C3CCCC3)o2)o1)N1CCOCC1	834 s
COC(=O)c1ccccc1NC(=O)CCn1c(=O)oc2ccccc21	825 s
CCC(Sc1ccc(NC(=O)c2cccc(F)c2)nn1)C(=O)OC (configuration not stated)	890 s
Cc1cc(C)cc(NC(=O)Cn2cccc2-c2nnc(C3CCC3)o2)c1	920 s
CCOc1ccccc1NC(=O)CN1c2ccc(F)cc2-c2ccccc2S1(=O)=O	1090 s
COc1ccc(NS(=O)(=O)c2ccc3c(c2)C(=O)N(C)c2ncccc2O3)cc1	844 s
COc1ccc(CNC(=O)Cn2nc3cc(C)nc(-c4ccccc4)n3c2=O)cc1	752 s
COc1ccc(NC(=O)c2c(C)oc3nc(C)nc(N4CCOCC4)c23)cc1	706 s
COCc1nc(-c2ccc(OC3CN(Cc4ccncc4)C3)cc2)no1	589 s
COc1ccccc1NC1=NS(=O)(=O)c2ccccc21	769 s
COc1ccc(C2(C(N)=O)CC2)cc1	682 s
Cc1ccc(-c2coc(-c3ccc(NC(=O)NCc4ccco4)cc3)n2)c(C)c1	1110 s
O=S(=O)(c1cccc(F)c1)N1CC(c2nc(CCOCC3CC3)no2)C1	907 s
O=C(Nc1ccc(F)cc1)N1CCC(CCOc2ccncc2)CC1	616 s
COCCN1C(=O)CCc2cc(NC(C)=O)ccc21	604 s

SMILES	RP-LC retention time
Cc1nc(-c2cccc(N3CC(C(=O)N4CCCc5ccccc54)CC3=O)c2)no1 (configuration not stated)	783 s
O=C(C(=O)N1CCN(C2CCCCC2)CC1)c1ccc[nH]1	588 s
Cc1nc(-c2ccccc2)nc2c1CCC(=O)N2Cc1cccs1	1120 s
Cc1cccc(NC(=O)C2CCN(S(=O)(=O)c3cc(-c4noc(C5CC5)n4)cs3)CC2)c1C	1020 s
Cc1nn(-c2ccccc2)c2nc(N3CCCC(C(=O)Nc4cccc(Br)c4)C3)sc12 (configuration not stated)	1300 s
O=C(Nc1ccc(N2CCOCC2)cc1)C1CCN(c2cncnc2N2CCCC2)CC1	602 s
CCCNC(=O)Nc1ccc(C)cc1C	827 s
COc1ccc(-c2cn3c(CC(=O)NCc4ccccc4)csc3n2)cc1OC	693 s
Cc1ccc(Cl)c(NS(=O)(=O)c2cc3c(s2)CCN(C(=O)C2CC2)C3)c1	901 s
CCn1c(=O)c2cc(C(=O)Nc3cccc(C(F)(F)F)c3)nn2c2ccccc21	1080 s
COCc1cc(=O)n(CC(=O)Nc2cccc(C)c2)c(N)n1	622 s
CNC(=O)c1cc2c(=O)n(CC(C)C)c3ccccc3n2n1	793 s
O=C(NCc1ccc2c(c1)OCO2)C1CCN(C(=O)c2cc(-c3cccnc3)n[nH]2)CC1	656 s
COc1cc2c(cc1OC)CN(CCc1ccc(NC(=O)c3cc(OC)c(OC)cc3NC(=O)c3cnc4ccccc4c3)cc1)CC2	777 s
O=C1CCCC2=C1C(c1ccco1)N(C(=O)CCC(=O)N1CCOCC1)c1ccccc1N2 (configuration not stated)	648 s
CCOc1ccccc1NC(=O)N1CCC2(CC1)NC(=O)c1cc(F)ccc1N2C	817 s
O=C(C1=CN(c2cccc(Br)c2)c2ccccc2S1(=O)=O)N1CCCC1	819 s
CCOc1nc2ccccc2nc1N1CCCC(C(=O)N2CCN(c3ccccc3F)CC2)C1 (configuration not stated)	1330 s
